Results on 16 compounds are retold here after patent publication US20240279202A1 (NURIX THERAPEUTICS, INC., priority 2021, published 2024).

This experiment concerns the target T1, ITK (Mus musculus, UniProt Q03526).
T1 construct: mice were sacrificed and splenocytes were isolated and used to prepare protein lysates; from tissue; host or cells: mouse splenocytes (spleen) after oral dosing
T1 sequence (Q03526 1-625): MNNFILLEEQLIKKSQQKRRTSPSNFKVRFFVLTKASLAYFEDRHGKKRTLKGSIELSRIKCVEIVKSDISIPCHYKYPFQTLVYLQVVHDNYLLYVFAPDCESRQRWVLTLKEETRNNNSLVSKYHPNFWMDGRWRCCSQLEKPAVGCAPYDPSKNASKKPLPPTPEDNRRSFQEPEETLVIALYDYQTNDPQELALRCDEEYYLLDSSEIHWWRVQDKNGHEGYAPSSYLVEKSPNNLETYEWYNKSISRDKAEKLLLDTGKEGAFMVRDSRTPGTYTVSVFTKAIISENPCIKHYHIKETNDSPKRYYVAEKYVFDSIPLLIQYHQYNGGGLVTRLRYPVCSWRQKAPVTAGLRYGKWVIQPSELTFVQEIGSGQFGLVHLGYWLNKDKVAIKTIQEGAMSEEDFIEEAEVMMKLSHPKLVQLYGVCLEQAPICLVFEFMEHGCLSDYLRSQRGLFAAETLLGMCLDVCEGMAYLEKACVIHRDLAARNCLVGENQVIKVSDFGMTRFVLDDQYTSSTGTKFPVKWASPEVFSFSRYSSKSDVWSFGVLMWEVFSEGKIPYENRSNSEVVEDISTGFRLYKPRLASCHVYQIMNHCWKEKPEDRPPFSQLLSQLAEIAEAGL
Nature of the experiment: Mouse PD assay for ITK degradation (Western blot, splenocytes after oral administration). Conditions: for ITK (%) 90 mpk PO, 6 h: percent ITK remaining in mouse splenocytes relative to vehicle; for ITK degradation in vivo at 6 hours (FIG. 3A, FIG. 4A): mice, oral, splenocytes, Western blot. The class given is in vivo. The procedure, abridged: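 Mice dosed orally, some compounds at 90 mg/kg; splenocytes harvested after 6 hours (some 24 hours). ITK measured by Western blot of equal-protein lysates, normalized to actin. Values are % ITK remaining relative to vehicle-control mean.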

As to `C[C@@]12Cc3[nH]nc(-c4cc5ccc(N6CCC7(CCN(CC8CCN(c9ccc(C%10CCC(=O)NC%10=O)cn9)CC8)CC7)C6=O)cc5[nH]4)c3C[C@@H]1C2(F)F` (stereo partly drawn) [Compound 19, 3-(6-(4-((2-(2-((4aS,5aR)-5,5-difluoro-5a-methyl-1,4,4a,5,5a,6-hexahydrocyclopropa[f]indazol-3-yl)-1H-indol-6-yl)-1-oxo-2,8-diazaspiro[4.5]decan-8-yl)methyl)piperidin-1-yl)pyridin-3-yl)piperidine-2,6-dione], the “ITK (%) 90 mpk PO, 6 h” value came out at 8%.

As to `CN(C(=O)CCC1CCN(c2ccc(C3CCC(=O)NC3=O)cn2)CC1)c1ccc2cc(-c3n[nH]c4c3C[C@@H]3C(F)(F)[C@]3(C)C4)[nH]c2c1` (stereo partly drawn) [Compound 21, N-(2-((4aS,5aR)-5,5-difluoro-5a-methyl-1,4,4a,5,5a,6-hexahydrocyclopropa[f]indazol-3-yl)-1H-indol-6-yl)-3-(1-(5-(2,6-dioxopiperidin-3-yl)pyridin-2-yl)piperidin-4-yl)-N-methylpropanamide], the “ITK (%) 90 mpk PO, 6 h” value came out at 76%. On the same count and under the same terms, then `CC1(C)CCc2c(-c3cc4ccc(N5CCC6(CCN(CC7CCN(c8ccc(C9CCC(=O)NC9=O)cn8)CC7)CC6)C5=O)cc4[nH]3)n[nH]c2C1` (stereo not drawn) [Compound 22, 3-(6-(4-((2-(2-(6,6-dimethyl-4,5,6,7-tetrahydro-1H-indazol-3-yl)-1H-indol-6-yl)-1-oxo-2,8-diazaspiro[4.5]decan-8-yl)methyl)piperidin-1-yl)pyridin-3-yl)piperidine-2,6-dione], with 76%; and `C[C@@H](C(=O)N(C)c1ccc2cc(-c3n[nH]c4c3CCC(C)(C)C4)[nH]c2c1)N1CCN(C[C@H]2CCN(c3ccc4c(c3)C(=O)N(C3CCC(=O)NC3=O)C4=O)C2)CC1` (stereo partly drawn) [Compound 33, (2S)—N-(2-(6,6-dimethyl-4,5,6,7-tetrahydro-1H-indazol-3-yl)-1H-indol-6-yl)-2-(4-(((3R)-1-(2-(2,6-dioxopiperidin-3-yl)-1,3-dioxoisoindolin-5-yl)pyrrolidin-3-yl)methyl)piperazin-1-yl)-N-methylpropanamide], with 67%; and `C[C@@H](C(=O)N(C)c1ccc2cc(-c3n[nH]c4c3CCC(C)(C)C4)[nH]c2c1)N1CCN(C(=O)C2CN(C3CCN(c4ccc5c(c4)C(=O)N(C4CCC(=O)NC4=O)C5=O)CC3)C2)CC1` (stereo partly drawn) [Compound 34, (2S)—N-(2-(6,6-dimethyl-4,5,6,7-tetrahydro-1H-indazol-3-yl)-1H-indol-6-yl)-2-(4-(1-(1-(2-(2,6-dioxopiperidin-3-yl)-1,3-dioxoisoindolin-5-yl)piperidin-4-yl)azetidine-3-carbonyl)piperazin-1-yl)-N-methylpropanamide], with 108%. Turning to `CN(C(=O)C1CN(C2CCN(c3ccc4c(c3)C(=O)N(C3CCC(=O)NC3=O)C4=O)CC2)C1)c1ccc2cc(-c3n[nH]c4c3CCC(C)(C)C4)[nH]c2c1` (stereo not drawn) [Compound 35, N-(2-(6,6-dimethyl-4,5,6,7-tetrahydro-1H-indazol-3-yl)-1H-indol-6-yl)-1-(1-(2-(2,6-dioxopiperidin-3-yl)-1,3-dioxoisoindolin-5-yl)piperidin-4-yl)-N-methylazetidine-3-carboxamide], the “ITK (%) 90 mpk PO, 6 h” value came out at 108%. For `C[C@@]12Cc3[nH]nc(C(=O)Nc4cnn(CC5CN(C(=O)C6CN(C7CCN(c8ccc9c(c8)C(=O)N(C8CCC(=O)NC8=O)C9=O)CC7)C6)C5)c4)c3C[C@@H]1C2(F)F` (stereo partly drawn) [Compound 42, (4aS,5aR)-N-(1-((1-(1-(1-(2-(2,6-dioxopiperidin-3-yl)-1,3-dioxoisoindolin-5-yl)piperidin-4-yl)azetidine-3-carbonyl)azetidin-3-yl)methyl)-1H-pyrazol-4-yl)-5,5-difluoro-5a-methyl-1,4,4a,5,5a,6-hexahydrocyclopropa[f]indazole-3-carboxamide], the “ITK (%) 90 mpk PO, 6 h” value is reported as 82%. Turning to `C[C@@]12Cc3[nH]nc(C(=O)Nc4cnn(CC5CN(C(=O)C6CN(c7ccc8c(c7)C(=O)N(C7CCC(=O)NC7=O)C8=O)C6)C5)c4)c3C[C@@H]1C2(F)F` (stereo partly drawn) [Compound 43, (4aS,5aR)-N-(1-((1-(1-(2-(2,6-dioxopiperidin-3-yl)-1,3-dioxoisoindolin-5-yl)azetidine-3-carbonyl)azetidin-3-yl)methyl)-1H-pyrazol-4-yl)-5,5-difluoro-5a-methyl-1,4,4a,5,5a,6-hexahydrocyclopropa[f]indazole-3-carboxamide], the “ITK degradation in vivo at 6 hours (FIG. 3A, FIG. 4A)” value was “degraded ITK in vivo” and the “ITK (%) 90 mpk PO, 6 h” value was 7%.

As to `C[C@@]12Cc3[nH]nc(C(=O)Nc4cnn(CC5CN(C[C@H]6CCN(c7ccc8c(c7)C(=O)N(C7CCC(=O)NC7=O)C8=O)C6)C5)c4)c3C[C@@H]1C2(F)F` (stereo partly drawn) [Compound 44, (4aS,5aR)-N-(1-((1-(((3R)-1-(2-(2,6-dioxopiperidin-3-yl)-1,3-dioxoisoindolin-5-yl)pyrrolidin-3-yl)methyl)azetidin-3-yl)methyl)-1H-pyrazol-4-yl)-5,5-difluoro-5a-methyl-1,4,4a,5,5a,6-hexahydrocyclopropa[f]indazole-3-carboxamide], the “ITK degradation in vivo at 6 hours (FIG. 3A, FIG. 4A)” value was “degraded ITK in vivo” and the “ITK (%) 90 mpk PO, 6 h” value was 75%.

Take `Cn1c(=O)n([C@H]2CCC(=O)NC2=O)c2cccc(N3CCC(CN4CCN(C(=O)c5ccc6cc(-c7n[nH]c8c7CCC(C)(C)C8)[nH]c6c5)CC4)CC3)c21` [Compound 46, (S)-3-(4-(4-((4-(2-(6,6-dimethyl-4,5,6,7-tetrahydro-1H-indazol-3-yl)-1H-indole-6-carbonyl)piperazin-1-yl)methyl)piperidin-1-yl)-3-methyl-2-oxo-2,3-dihydro-1H-benzo[d]imidazol-1-yl)piperidine-2,6-dione]: the “ITK (%) 90 mpk PO, 6 h” value worked out at 102%. Same read-out and setting: then `CC1(C)CCc2c(-c3cc4ccc(C(=O)N5CCN(CC6CCN(c7ccc(C8CCC(=O)NC8=O)cn7)CC6)CC5)cc4[nH]3)n[nH]c2C1` (stereo not drawn) [Compound 47, 3-(6-(4-((4-(2-(6,6-dimethyl-4,5,6,7-tetrahydro-1H-indazol-3-yl)-1H-indole-6-carbonyl)piperazin-1-yl)methyl)piperidin-1-yl)pyridin-3-yl)piperidine-2,6-dione], with 11%; and `Cn1c(=O)n([C@@H]2CCC(=O)NC2=O)c2cccc(N3CCC(CN4CCN(C(=O)c5ccc6cc(-c7n[nH]c8c7CCC(C)(C)C8)[nH]c6c5)CC4)CC3)c21` [Compound 48, (R)-3-(4-(4-((4-(2-(6,6-dimethyl-4,5,6,7-tetrahydro-1H-indazol-3-yl)-1H-indole-6-carbonyl)piperazin-1-yl)methyl)piperidin-1-yl)-3-methyl-2-oxo-2,3-dihydro-1H-benzo[d]imidazol-1-yl)piperidine-2,6-dione], with 35%. On to `C[C@@]12Cc3[nH]nc(C(=O)Nc4cnn(CC5CN(C(=O)C6CN(c7ccc(C8CCC(=O)NC8=O)cn7)C6)C5)c4)c3C[C@@H]1C2(F)F` (stereo partly drawn) [Compound 49, (4aS,5aR)-N-(1-((1-(1-(5-(2,6-dioxopiperidin-3-yl)pyridin-2-yl)azetidine-3-carbonyl)azetidin-3-yl)methyl)-1H-pyrazol-4-yl)-5,5-difluoro-5a-methyl-1,4,4a,5,5a,6-hexahydrocyclopropa[f]indazole-3-carboxamide], for which the “ITK (%) 90 mpk PO, 6 h” value is 129%.

Turning to `C[C@@]12Cc3[nH]nc(C(=O)Nc4cnn(CC5CN(C(=O)C6CCN(c7ccc(C8CCC(=O)NC8=O)cn7)CC6)C5)c4)c3C[C@@H]1C2(F)F` (stereo partly drawn) [Compound 50, (4aS,5aR)-N-(1-((1-(1-(5-(2,6-dioxopiperidin-3-yl)pyridin-2-yl)piperidine-4-carbonyl)azetidin-3-yl)methyl)-1H-pyrazol-4-yl)-5,5-difluoro-5a-methyl-1,4,4a,5,5a,6-hexahydrocyclopropa[f]indazole-3-carboxamide], the “ITK (%) 90 mpk PO, 6 h” value was determined as 113%. As for `C[C@@H](C(=O)N(C)c1ccc2cc(-c3n[nH]c4c3C[C@@H]3C(F)(F)[C@]3(C)C4)[nH]c2c1)N1CCN(CC2CCN(c3cccc4c3n(C)c(=O)n4C3CCC(=O)NC3=O)CC2)CC1` (stereo partly drawn) [Compound 65, (2S)—N-(2-((4aS,5aR)-5,5-difluoro-5a-methyl-1,4,4a,5,5a,6-hexahydrocyclopropa[f]indazol-3-yl)-1H-indol-6-yl)-2-(4-((1-(1-(2,6-dioxopiperidin-3-yl)-3-methyl-2-oxo-2,3-dihydro-1H-benzo[d]imidazol-4-yl)piperidin-4-yl)methyl)piperazin-1-yl)-N-methylpropanamide], the “ITK (%) 90 mpk PO, 6 h” value is reported as 58%. Still for that read-out and setting: then `C[C@@H](C(=O)N(C)c1ccc2cc(-c3n[nH]c4c3C[C@@H]3C(F)(F)[C@]3(C)C4)[nH]c2c1)N1CCN(CC2CCN(c3ccc(C(=O)NC4CCC(=O)NC4=O)nc3)CC2)CC1` (stereo partly drawn) [Compound 66, 5-(4-((4-((S)-1-((2-((4aS,5aR)-5,5-difluoro-5a-methyl-1,4,4a,5,5a,6-hexahydrocyclopropa[f]indazol-3-yl)-1H-indol-6-yl)(methyl)amino)-1-oxopropan-2-yl)piperazin-1-yl)methyl)piperidin-1-yl)-N-(2,6-dioxopiperidin-3-yl)picolinamide], with 42.7%.
